Measured values published in EP2385948B1, “FUSED THIAZOLO AND OXAZOLO PYRIMIDINONES” (Torrent Pharmaceuticals Limited, priority 2009, dated 2011).

test system: erythropoietin; test: In vitro erythropoietin induction (ELISA of cell culture supernatant); conditions: Hep3B cell line, 50 uM, 16 hours, relative to vehicle control
Method: Hep3B cell line (ATCC HB8064) was employed. Induction of erythropoietin was carried out for the indicated dose of compounds for 16 hours duration. At the end of 16 hours, cell culture medium was collected and centrifuged to remove any debris. Supernatant obtained was analyzed for erythropoietin by ELISA (R&D systems, USA). The results were expressed as fold induction as compared to vehicle control.

`O=C([O-])CNC(=O)c1c(O)nc2sc3c(n2c1=O)CCCC3.[Na+]` was tested, and the EPO fold induction was “++ (++ indicates 2-4 fold)”.
With `O=C(O)CNC(=O)c1c(O)nc2sc3c(n2c1=O)CCCC3` [Compound 1, [(2-Hydroxy-4-oxo-5,6,7,8-tetrahydro-4H-9-thia-1,4a-diaza-fluorene-3-carbonyl)-amino]-acetic acid] the EPO fold induction was “+++ (+++ indicates 5-8 fold)”.

same assay, conditions: Homo sapiens, Hep3B, 16 h, read-out: EPO fold induction, Hep3B cell line, 200 uM, 16 hours, relative to vehicle control

First: CCOC(=O)N1CCc2c(sc3nc(O)c(C(=O)NCC(=O)O)c(=O)n23)C1 [Compound 2, 3-(Carboxymethyl-carbamoyl)-2-hydroxy-4-oxo-5,8-dihydro-4H,6H-9-thia-1,4a,7-triaza-fluorene-7-carboxylic acid ethyl ester]
Second: CC(C)CC(=O)N1CCc2c(sc3nc(O)c(C(=O)NCC(=O)O)c(=O)n23)C1 [Compound 4, {[2-Hydroxy-7-(3-methyl-butyryl)-4-oxo-5,6,7,8-tetrahydro-4H-9-thia-1,4a,7-triaza-fluorene-3-carbonyl]-amino}-acetic acid]
The fold induction at 200 µM of the first is higher: 5 to 8 for the first, 2 to 4 for the second.

`CS(=O)(=O)N1CCc2c(sc3nc(O)c(C(=O)NCC(=O)O)c(=O)n23)C1` [Compound 3, [(2-Hydroxy-7-methanesulfonyl-4-oxo-5,6,7,8-tetrahydro-4H-9-thia-1,4a,7-triaza-fluorene-3-carbonyl)-amino]-acetic acid] and `CC(C)S(=O)(=O)N1CCc2c(sc3nc(O)c(C(=O)NCC(=O)O)c(=O)n23)C1` [Compound 5, {[2-Hydroxy-4-oxo-7-(propane-2-sulfonyl)-5,6,7,8-tetrahydro-4H-9-thia-1,4a,7-triaza-fluorene-3-carbonyl]-amino}-acetic acid] fall in the same range of fold induction at 200 µM: 2 to 4 for the first, 2 to 4 for the second.

Compared with `O=C(NC1(C(=O)O)CCCC1)c1c(O)nc2sc3c(n2c1=O)CCCC3` [Compound 6, 1-[(2-Hydroxy-4-oxo-5,6,7,8-tetrahydro-4H-9-thia-1,4a-diaza-fluorene-3-carbonyl)-amino]-cyclopentanecarboxylic acid], `O=C(O)CNC(=O)c1c(O)nc2sc3c(n2c1=O)CCC3` [Compound 11, [(2-Hydroxy-4-oxo-7,8-dihydro-4H,6H-cyclopenta[4,5]thiazolo[3,2-a]pyrimidine-3-carbonyl)-amino]-acetic acid] is higher in fold induction at 200 µM: < 2 for the first, 5 to 8 for the second.

`Cc1ccc(S(=O)(=O)N2CCc3c(sc4nc(O)c(C(=O)NCC(=O)O)c(=O)n34)C2)cc1` [Compound 7, {[2-Hydroxy-4-oxo-7-(toluene-4-sulfonyl)-5,6,7,8-tetrahydro-4H-9-thia-1,4a,7-triaza-fluorene-3-carbonyl]-amino}-acetic acid] and `O=C(O)CNC(=O)c1c(O)nc2sc3c(n2c1=O)CCN(S(=O)(=O)c1ccc(OC(F)(F)F)cc1)C3` [Compound 19, {[2-Hydroxy-4-oxo-7-(4-trifluoromethoxy-benzenesulfonyl)-5,6,7,8-tetrahydro-4H-9-thia-1,4a,7-triaza-fluorene-3-carbonyl]-amino}-acetic acid] fall in the same range of fold induction at 200 µM: 2 to 4 for the first, 2 to 4 for the second.

First: O=C(O)CNC(=O)c1c(O)nc2sc3c(n2c1=O)CCN(C(=O)Nc1ccccc1)C3 [Compound 8, [(2-Hydroxy-4-oxo-7-phenylcarbamoyl-5,6,7,8-tetrahydro-4H-9-thia-1,4a,7-triaza-fluorene-3-carbonyl)-amino]-acetic acid]
Second: O=C(O)CNC(=O)c1c(O)nc2sc3c(n2c1=O)CCN(C(=S)Nc1ccc(F)cc1)C3 [Compound 24, {[7-(4-Fluoro-phenylthiocarbamoyl)-2-hydroxy-4-oxo-5,6,7,8-tetrahydro-4H-9-thia-1,4a,7-triaza-fluorene-3-carbonyl]-amino}-acetic acid]
The fold induction at 200 µM of the first is lower: 2 to 4 for the first, 5 to 8 for the second.

`O=C(O)CNC(=O)c1c(O)nc2sc3c(n2c1=O)CCN(C(=O)C1CC1)C3` [Compound 9, [(7-Cyclopropanecarbonyl-2-hydroxy-4-oxo-5,6,7,8-tetrahydro-4H-9-thia-1,4a,7-triaza-fluorene-3-carbonyl)-amino]-acetic acid] and `CC(C)(C)C(=O)N1CCc2c(sc3nc(O)c(C(=O)NCC(=O)O)c(=O)n23)C1` [Compound 20, {[7-(2,2-Dimethyl-propionyl)-2-hydroxy-4-oxo-5,6,7,8-tetrahydro-4H-9-thia-1,4a,7-triaza-fluorene-3-carbonyl]-amino}-acetic acid] fall in the same range of fold induction at 200 µM: 5 to 8 for the first, 5 to 8 for the second.

`CC(C)(C)C1CCc2c(sc3nc(O)c(C(=O)NCC(=O)O)c(=O)n23)C1` (centres unmarked) [Compound 13, [(7-tert-Butyl-2-hydroxy-4-oxo-5,6,7,8-tetrahydro-4H-9-thia-1,4a-diaza-fluorene-3-carbonyl)-amino]-acetic acid] and `CC(C)(C)C1CCc2c(sc3nc(O)c(C(=O)NCCC(=O)O)c(=O)n23)C1` (centres unmarked) [Compound 15, 3-[(7-tert-Butyl-2-hydroxy-4-oxo-5,6,7,8-tetrahydro-4H-9-thia-1,4a-diaza-fluorene-3-carbonyl)-amino]-propionic acid] cannot be ordered by fold induction at 200 µM: < 2 for the first, < 2 for the second.

`O=C(O)CCNC(=O)c1c(O)nc2sc3c(n2c1=O)CCC3` [Compound 14, 3-[(2-Hydroxy-4-oxo-7,8-dihydro-4H,6H-cyclopenta[4,5]thiazolo[3,2-a]pyrimidine-3-carbonyl)-amino]-propionic acid] and `CC(C)NC(=S)N1CCc2c(sc3nc(O)c(C(=O)NCC(=O)O)c(=O)n23)C1` [Compound 25, [(2-Hydroxy-7-isopropylthiocarbamoyl-4-oxo-5,6,7,8-tetrahydro-4H-9-thia-1,4a,7-triaza-fluorene-3-carbonyl)-amino]-acetic acid] fall in the same range of fold induction at 200 µM: 2 to 4 for the first, 2 to 4 for the second.

`O=C(O)CNC(=O)c1c(O)nc2sc3c(n2c1=O)CCN(C(=O)c1ccc(F)cc1)C3` [Compound 16, {[7-(4-Fluoro-benzoyl)-2-hydroxy-4-oxo-5,6,7,8-tetrahydro-4H-9-thia-1,4a,7-triaza-fluorene-3-carbonyl]-amino}-acetic acid] and `O=C(O)CNC(=O)c1c(O)nc2sc3c(n2c1=O)CCN(C(=O)c1ccc(OC(F)(F)F)cc1)C3` [Compound 22, {[2-Hydroxy-4-oxo-7-(4-trifluoromethoxy-benzoyl)-5,6,7,8-tetrahydro-4H-9-thia-1,4a,7-triaza-fluorene-3-carbonyl]-amino}-acetic acid] fall in the same range of fold induction at 200 µM: 5 to 8 for the first, 5 to 8 for the second.

First: O=C(O)CNC(=O)c1c(O)nc2sc3c(n2c1=O)CCN(S(=O)(=O)c1ccc(Cl)s1)C3 [Compound 17, {[7-(5-Chloro-thiophene-2-sulfonyl)-2-hydroxy-4-oxo-5,6,7,8-tetrahydro-4H-9-thia-1,4a,7-triaza-fluorene-3-carbonyl]-amino}-acetic acid]
Second: O=C(O)CNC(=O)c1c(O)nc2sc3c(n2c1=O)CCN(c1ccc(C(F)(F)F)cn1)C3 [Compound 18, {[2-Hydroxy-4-oxo-7-(5-trifluoromethyl-pyridin-2-yl)-5,6,7,8-tetrahydro-4H-9-thia-1,4a,7-triaza-fluorene-3-carbonyl]-amino}-acetic acid]
The fold induction at 200 µM of the first is lower: 2 to 4 for the first, 9 to 16 for the second.

With `CCCCc1ccc(C(=O)N2CCc3c(sc4nc(O)c(C(=O)NCC(=O)O)c(=O)n34)C2)cc1` [Compound 21, {[7-(4-Butyl-benzoyl)-2-hydroxy-4-oxo-5,6,7,8-tetrahydro-4H-9-thia-1,4a,7-triaza-fluorene-3-carbonyl]-amino}-acetic acid] the fold induction at 200 µM was 9 to 16.
